Results as given in US11229602B2, “Formulations for treating bladder cancer” (priority 2016, dated 2022).
Values joined by “and” are separate entries in the source; they are usually repeats but may differ in a detail not shown here. Equal values may be shown once. Read-outs that look alike come from different tables or passages of the source.

Columns and labels:
[1] = test system: human bladder epithelial carcinoma cell-line T24 (ATCC HTB-4); test: Sulforhodamine B (SRB) assay, T24 cells; type: cell-based; settings: 72 h treatment
Procedure: (§1) A sulforhodamine B (SRB) assay-based approach was employed to determine the inhibitory concentration (IC)50 of paclitaxel formulations PLIP-003, PLIP-006, PLIP-021, and PLIP-023 against the human bladder epithelial carcinoma cell-lines T24 (ATCC® HTB-4™), 5637 (ATCC® HTB-9™) and HT-1376 (ATCC® CRL-1472™). For use in the assays, the paclitaxel formulations were redispersed in normal saline to a concentration of 2-5 mg/mL paclitaxel. The dispersed formulations formed clear solutions. Pure, unformulated, paclitaxel solution ([6 mg/100 μL] in DMSO) was used as a control formulation.
(§2) Cells were seeded onto 96-well plates at a density of 5×10^3 cells/well and cultured for 24 h at 37° C. and 5% CO2. The dispersed paclitaxel formulations and pure drug controls were added to the media of the plated cell cultures. […] Protein-bound SRB was detected by adding 100 μl 10 mM Tris base solution to each well, and allowing 5 to 10 minutes for Tris solution to solubilize SRB. The plates were read using a microplate reader at an absorbance of 565 nm. […]
(§3) Cells were seeded onto 96-well plates at a density of 5×10^3 cells/well and cultured for 24 h at 37° C. and 5% CO2. […] Protein-bound SRB was detected by adding 100 μl 10 mM Tris base solution to each well, and allowing 5 to 10 minutes for Tris solution to solubilize SRB. The plates were read using a microplate reader at an absorbance of 565 nm.

[2] = test system: human bladder epithelial carcinoma cell-line 5637 (ATCC HTB-9); test: Sulforhodamine B (SRB) assay, 5637 cells; type: cell-based; settings: 72 h treatment
Procedure: as §1, §2, §3

[3] = test system: KU-7-GFP human bladder cancer; test: KU-7-GFP human bladder cancer orthotopic mouse model, intravesical instillation; type: in vivo, mice
Procedure: An orthotopic mouse model was utilized to evaluate a proliposomal formulation of paclitaxel. The bladder cancer cell line KU7/GFP clone 6 was used for these studies. The KU7/GFP clone 6 is stably transfected with the green-fluorescent protein, and these cell lines were used for all in vivo studies. The KU7/GFP clone 6 cell lines are described in Watanabe et al. The cells were grown in modified minimum essential medium supplemented with 10% FCS and incubated at 37° C. in 5% CO2. Tumors generated from KU7/GFP cells were generated […]. The tumors were implanted into the bladder of female mice. […] The foregoing formulations and saline were administered at day 0, day 7, and day 14 post-tumor implantation.
KU-7-GFP human bladder cancer orthotopic MetaMouse® model: The human bladder cancer cell line KU-7 expressing GFP was from the AntiCancer Inc. cell-line bank. The animals were transplanted by intravesical instillation using the KU-7-GFP bladder cancer cells. The animals were anesthetized with a mixture of ketamine, acepromazine and xylazine. The surgical area was sterilized using iodine and alcohol. After proper exposure of the bladder following a lower midline abdominal incision, the bladder was catheterized with a 24-G angiocatheter, drained and injured by a scratch with a needle in the bladder lining. KU-7-GFP (100 μl 2×10^6) cells were instilled into the bladder and a purse string was placed to occlude the urethra in order for the cells to be retained for 1 hour. The bladder was then returned to the abdominal cavity. The incision in the abdominal wall was closed with a 6-0 surgical suture in one layer. The animals were kept under isoflurane anesthesia during surgery. All procedures of the operation described above were performed under a 7× magnification microscope (Olympus). Animals were kept in a barrier facility under HEPA filtration.
On day 7 after tumor cell implantation, fifty animals were randomly divided into five groups (each treatment group contained n=10 mice) on day 7 after tumor implantation. Treatments in all groups for all mice were initiated on the same day, which was considered Study Day 0. Freshly reconstituted formulation (50 μL) was instilled intravesically using a 24 G/¾″ IV catheter, and the urethra was occluded using a purse string knot. The formulation was held in the bladder for a period of 1 h. After 1 h, the purse string was cut open, and the bladder was allowed to void naturally. The same procedure was followed on days 0, 7, 14 […].
In vitro human bladder cancer cell lines (T24, KU7) were used to assess IC50 values. In vivo studies were carried out in nude mice inoculated with KU7-GFP cell-lines. After KU7 bladder tumor inoculation, weekly (×3) intravesical instillations (3 groups: PLIP; PTX/DMSO or PTX/Nab; or saline) were delivered and tumor growth measured. Pharmacokinetic studies were carried out in rat species. A GLP compliant acute-expanded toxicology/toxicokinetics study in rat species was also performed.

[4] = test system: human bladder epithelial carcinoma cell-line HT-1376 (ATCC CRL-1472); test: Sulforhodamine B (SRB) assay, HT-1376 cells; type: cell-based; settings: HT1376; cisplatin formulations; 72 h treatment
Procedure: as §1, §2, §3

[5] = Redispersion / dissolution in normal saline; type: physicochemical
Procedure: as §1
A sulforhodamine B (SRB) assay-based approach was employed to determine the inhibitory concentration IC50 of cisplatin formulations PLIC-002 and PLIC-009 against the human bladder carcinoma epithelial cell-lines T24 (ATCC® HTB-4™), 5637 (ATCC® HTB-9™) and HT-1376 (ATCC® CRL-1472™). For use in the assays, the cisplatin formulations were redispersed in normal saline to a concentration 2 mg/mL cisplatin. The redispersed formulations formed clear solutions. Pure cisplatin solution 1 mg/mL in normal saline (unformulated) was used as a control. Higher concentrations of pure cisplatin were not used because cisplatin will not form a clear solution above 1 mg/mL in normal saline.

[6] = 5.0 mg/kg, nude mice KU7-GFP, weekly intravesical instillations
[7] = 5.0 mg/kg, nude mice KU7-GFP, weekly intravesical instillations, * p < 0.05 vs saline

IC50 ([1]; Homo sapiens, T-24, paclitaxel formulations, read-out: IC50)	IC50 ([2]; Homo sapiens, paclitaxel formulations, read-out: IC50)	Structure (SMILES)	Bladder Size [3, 6]	Tumor Size [3, 6]	% Bladder Overtaken by Tumor [3, 7]	% Complete Response [3, 7]	Final tumor area, measured by fluorescent method ([3]; Groups 3 and 4, title says Study Design 2, two weeks, five groups as in Study Design 1 (5 mg/kg once a week), individual mice, listed as PTX in DMSO, 5 mg/kg)	Final tumor area, measured by fluorescent method, mean ([3]; Groups 3 and 4, title says Study Design 2, two weeks, five groups as in Study Design 1 (5 mg/kg once a week), mean)	IC50 ([1]; cisplatin formulations)	IC50 ([2]; cisplatin formulations)	IC50 [4]	highest concentration forming a clear solution in normal saline [5]
< 0.1 µg/mL	< 0.1 µg/mL	CC(=O)O[C@H]1C(=O)[C@@]2(C)[C@H]([C@H](OC(=O)c3ccccc3)[C@]3(O)C[C@H](OC(=O)[C@H](O)[C@@H](NC(=O)c4ccccc4)c4ccccc4)C(C)=C1C3(C)C)[C@]1(OC(C)=O)CO[C@@H]1C[C@@H]2O [Paclitaxel in DMSO, Paclitaxel]	13 mm^2	0.05 mm^2	10%*	25% (1/4)	16.39 mm^2 and 5.37 mm^2 and 15.96 mm^2	12.58 mm^2	–	–	–	–
–	–	N.N.[Cl][Pt][Cl] [Pure drug, Cis-diamminedichloroplatinum(II)]	–	–	–	–	–	–	0.788 µg/mL	0.441 µg/mL	1.11 µg/mL	≤ 1 mg/mL
